Results on two molecules are retold here after patent publication US10363298B2, “Immunomodulatory compounds” (priority 2014, dated 2019).

Experiment [1] has as its target multivalent forms of VcCBM and SpCBM. Put plainly: Surface plasmon resonance, summary statement for the multivalent forms. Conditions: read-out: dissociation constants, SPR.
Text: Tandem-repeat multivalent protein, Vc4CBM, based on the Family 40^31 sialic acid binding domain (CBM) of the nanH gene encoding the sialidase from V. cholerae, was generated using PCR-based cloning techniques as described previously^8. Oligomerisation of the CBM domain from V. cholerae nanH sialidase, and from S. pneumoniae nanA sialidase, using the trimerisation domain from the pseudaminidase protein from Pseudomonas aeruginosa was engineered as follows: the DNA fragments encoding the CBM of V. cholerae sialidase residues 25-216, and that of S. pneumoniae nanA sialidase residues 121-305, respectively, were modified at the 5′ and 3′ termini by PCR amplification using primer pairs (Table 3) to incorporate different restriction sites to link one or two copies of the CBM unit in tandem for subsequent ligation to the gene encoding the trimerization domain from P. aeruginosa pseudaminidase residues 333-438 (PaTD). The resulting fragments were cloned either into an appropriately digested pEHISTEV vector (for VcCBM fragments) or pEGFP-HISTEV vector (for SpCBM fragments) to create constructs designated as VcCBMTD, Vc2CBMTD, SpCBMTD and Sp2CBMTD, respectively (FIG. 1). […] All constructs were propagated in E. coli DH5a cells, and constructs were verified by DNA sequencing, before transforming the expression host E. coli BL21 Gold (DE3) for protein production. […]
The target of experiment [2] is Vc2CBMTD (two tandem CBMs of V. cholerae NanH sialidase, residues 25-216, SEQ ID NO: 2, fused to trimerisation domain of P. aeruginosa pseudaminidase, residues 333-438, SEQ ID NO: 6) (Vibrio cholerae serotype O1, UniProt A5F7A4). Put plainly: Surface plasmon resonance (Biacore T-100): binding to immobilized multivalent, biotinylated α-2,3-sialyllactose-PAA. The conditions noted are these: mean ± s.d. of three replicates.
Text: (§1) Tandem-repeat multivalent protein, Vc4CBM, based on the Family 40^31 sialic acid binding domain (CBM) of the nanH gene encoding the sialidase from V. cholerae, was generated using PCR-based cloning techniques as described previously^8. Oligomerisation of the CBM domain from V. cholerae nanH sialidase, and from S. pneumoniae nanA sialidase, using the trimerisation domain from the pseudaminidase protein from Pseudomonas aeruginosa was engineered as follows: the DNA fragments encoding the CBM of V. cholerae sialidase residues 25-216, and that of S. pneumoniae nanA sialidase residues 121-305, respectively, were modified at the 5′ and 3′ termini by PCR amplification using primer pairs (Table 3) to incorporate different restriction sites to link one or two copies of the CBM unit in tandem for subsequent ligation to the gene encoding the trimerization domain from P. aeruginosa pseudaminidase residues 333-438 (PaTD). The resulting fragments were cloned either into an appropriately digested pEHISTEV vector (for VcCBM fragments) or pEGFP-HISTEV vector (for SpCBM fragments) to create constructs designated as VcCBMTD, Vc2CBMTD, SpCBMTD and Sp2CBMTD, respectively (FIG. 1). […] All constructs were propagated in E. coli DH5a cells, and constructs were verified by DNA sequencing, before transforming the expression host E. coli BL21 Gold (DE3) for protein production.
(§2) Expression of engineered mCBMs was performed as described previously^8 with some modifications. Briefly, E. coli cells containing either His-tagged VcCBMs or GFP-His-tagged SpCBMs were lysed in a buffer containing PBS, 0.3M NaCl and 10 mM imidazole with DNAase (20 μg/ml) and protease (minus EDTA) inhibitor tablets (Roche). Clarified lysates were applied onto a HisTrap HP column, pre-charged with nickel (GE Healthcare) before elution of histidine-tagged CBMs using PBS containing 0.3 M NaCl and 250 mM imidazole. Removal of tag, unless otherwise stated, was performed by digestion in situ with TEV protease overnight before re-applying material to the nickel column. All mCBM proteins were further purified using size exclusion chromatography with a HiPrep 16/60 Sephacryl S200HR column (GE Healthcare) in PBS before using either a Vivapure S Maxi H (VcCBMs) or Q Maxi H (SpCBMs) column (Sartorius) to remove endotoxins. GFP-tagged proteins were also subjected to affinity chromatography and size exclusion chromatography as described above. […] Protein purity and size were verified by 12% SDS polyacrylamide gel electrophoresis and mass spectrometry. Purified mCBMs binding to sialic acid was verified by surface plasmon resonance (Biacore T-100, University of Edinburgh) using a streptavidin-coated biosensor chip immobilized with a multivalent, biotinylated α-2,3-sialyllactose-PAA (Glycotech) (Table 1).

The target in experiment [3] is Vc4CBM (tandem-repeat multivalent protein of four sialic acid binding domains of V. cholerae NanH sialidase, residues 25-216, SEQ ID NO: 2) (Vibrio cholerae, UniProt A5F7A4). The description is as above. The conditions noted are these: mean ± s.d. of three replicates.
Text: as §1, §2
The target in experiment [4] is VcCBMTD (CBM of V. cholerae NanH sialidase, residues 25-216, SEQ ID NO: 2, fused to trimerisation domain of P. aeruginosa pseudaminidase, residues 333-438, SEQ ID NO: 6) (Vibrio cholerae, UniProt A5F7A4). The experiment is described as above. The conditions noted are these: mean ± s.d. of three replicates.
Text: as §1, §2
The target of experiment [5] is influenza virus haemagglutinin (HA) monomer (Influenza A virus, UniProt P03437). The conditions noted are these: read-out: affinity for its receptor; cited from earlier work.
Setting [6] is: read-out: ka (association ('on') rate constant), 15 °C.
[7] abbreviates: read-out: ka (association ('on') rate constant), 25 °C.
Where [8] appears, read: read-out: ka (association ('on') rate constant), 37 °C.
Where [9] appears, read: read-out: kd (dissociation ('off') rate constant), 15 °C.
The mark [10] stands for this setting: read-out: kd (dissociation ('off') rate constant), 25 °C.
Where [11] appears, read: read-out: kd (dissociation ('off') rate constant), 37 °C.

Read-outs that look alike come from different tables or passages of the source.

With `CC(=O)N[C@H]1[C@H]([C@H](O)[C@H](O)CO)O[C@@](O[C@H]2[C@@H](O)[C@@H](CO)O[C@@H](O[C@H]3[C@H](O)[C@@H](O)C(O)O[C@@H]3CO)[C@@H]2O)(C(=O)O)C[C@@H]1O` (stereo partly drawn) [α-2,3-sialyllactose], the Kd in experiment [1] is below 0.001 µM. Besides, the kon in experiment [2] (setting [6]) was determined as 1.83e+06 ± 10000 M⁻¹ s⁻¹; in experiment [2] (setting [7]), 1.73e+06 ± 10000 M⁻¹ s⁻¹; in experiment [2] (setting [8]), 8.45e+06 ± 50000 M⁻¹ s⁻¹; in experiment [3] (setting [6]), 540000 ± 10000 M⁻¹ s⁻¹; in experiment [3] (setting [7]), 3.56e+06 ± 20000 M⁻¹ s⁻¹; in experiment [3] (setting [8]) it was 2.98e+06 ± 20000 M⁻¹ s⁻¹. Further, the kon was 2.55e+06 ± 20000 M⁻¹ s⁻¹ in experiment [4] (setting [6]), 7.24e+06 ± 60000 M⁻¹ s⁻¹ in experiment [4] (setting [7]) and 2.07e+07 ± 540000 M⁻¹ s⁻¹ in experiment [4] (setting [8]). Also, the koff was 0.00033 ± 1e-05 s⁻¹ in experiment [2] (setting [9]); 0.0007 ± 1e-05 s⁻¹ in experiment [2] (setting [10]); 0.00207 ± 1e-05 s⁻¹ in experiment [2] (setting [11]); 0.00051 ± 1e-05 s⁻¹ in experiment [3] (setting [9]); 0.0016 ± 1e-05 s⁻¹ in experiment [3] (setting [10]); 0.00541 ± 4e-05 s⁻¹ in experiment [3] (setting [11]). The figures for the koff in experiment [4] (setting [9]), in experiment [4] (setting [10]) and in experiment [4] (setting [11]) were 0.0042 ± 2e-05 s⁻¹, 0.0124 ± 0.0001 s⁻¹ and 0.107 s⁻¹, respectively.
For the molecule sialic acid, the Kd in experiment [5] is around 2500 µM.
